Our source for the Kd values is publication PMC12280060, “Design of linear and cyclic peptide binders from protein sequence information” (Communications Chemistry, 2025).

No end group written: not given here.

Assay [1] concerns the target T1, semi-synthetic Ribonuclease (PDB ID 1SSC), immobilised as MBP-8xHis-1SSC (Bos taurus, UniProt P61823).
T1 construct: made in house; host or cells: E. coli BL21 (DE3) T1R
T1 sequence (P61823 27-138 limits assumed): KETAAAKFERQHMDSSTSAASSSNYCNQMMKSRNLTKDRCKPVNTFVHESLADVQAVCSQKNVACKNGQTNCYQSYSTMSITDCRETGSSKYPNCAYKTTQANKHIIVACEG
Briefly: biochemical. The assay is classed as binding.

Assay [2] concerns the target T2, semi-synthetic Ribonuclease (PDB ID 1SSC), MBP-8xHis fusion construct (UniProt P61823 27-138).
T2 construct: also called MBP-8xHis-1SSC; psfRNAseA; source: E. coli BL21 (DE3) T1R, purified (IMAC, size exclusion chromatography)
T2 sequence: T1 sequence (P61823 27-138 limits assumed)
Kind of assay: SPR; MBP-8xHis-1SSC immobilised to about 12000 RU by amine coupling on a CM5 chip; peptides as analytes, single-cycle kinetics, 2 nM to 20 uM; 25 °C; HBS-EP+ (10 mM HEPES pH 7.4, 3 mM EDTA, 150 mM NaCl, 0.05% Tween-20); Biacore 8K; 1:1 binding model. The settings on record: both partners purified. (In general: Surface plasmon resonance follows binding to a sensor surface in real time, without labels.)

Molecule PYVPVHFDASV [PYVPVHFDASV] came in with a Kd in assay [1] of 1.22 µM.

B1: known peptide binder (11 residues) of the semi-synthetic Ribonuclease, PYVPVHFDASV (peptide)
peptide: PYVPVHFDASV
notes: also called WT; positive control; source: synthetic peptide
In the case of B1, in assay [2], the Kd was found to be 1.2 µM.

In general, Kd refers to a measure of binding affinity in units of concentration. The low end stands for tighter binding, the high end for weaker binding.
